≈ marks a conversion by molar mass, not a printed value.
Experiments:
[1] = test system: Providencia rettgeri GN311; assay: Antibacterial activity, MIC by serial dilution method; format: cell-based; conditions: 0.5% peptone agar, 37° C., 18 hours
P. rettgeri GN466 = assay: as above; format: cell-based; conditions: Providencia rettgeri, 0.5% peptone agar, 37° C., 18 hours
B. cereus ATCC10702 = assay: as above; format: cell-based; conditions: Bacillus cereus, 0.5% peptone agar, 37° C., 18 hours
[2] = test system: Klebsiella pneumoniae PCI602; assay: as above; format: cell-based; conditions: 0.5% peptone agar, 37° C., 18 hours
Serratia marcescens = assay: as above; format: cell-based; conditions: 0.5% peptone agar, 37° C., 18 hours
Micrococcus luteus FDA16 = assay: as above; format: cell-based; conditions: 0.5% peptone agar, 37° C., 18 hours
B. subtilis NRRL B-558 = assay: as above; format: cell-based; conditions: Bacillus subtilis, NRRLB558, 0.5% peptone agar, 37° C., 18 hours
[3] = test system: Shigella dysenteriae JS11910; assay: as above; format: cell-based; conditions: JS11910, 18 h
Bacillus anthracis = assay: microbe, parasite or virus in culture; format: cell-based; conditions: 18 h
B. subtilis PC1219 = assay: Antibacterial activity, MIC by serial dilution method; format: cell-based; conditions: Bacillus subtilis, 0.5% peptone agar, 37° C., 18 hours
S. aureus Smith = assay: as above; format: cell-based; conditions: Staphylococcus aureus, 0.5% peptone agar, 37° C., 18 hours
MT-4 cells = assay: Cytotoxicity to MT-4 cells; format: cell-based, human; design: key: -: That the cytotoxicity was not observed; conditions: absence of HIV
Procedure: Furthermore, cytotoxicity of the tested compound to the MT-4 cells was estimated. This was done by incubating the MT-4 cells at varying concentrations of the tested compound and in the absence of HIV but in the same manner of incubation and under the same conditions of incubation of MT-4 cells as those employed in the above-mentioned test procedures of assaying the activity of the tested compound to inhibit the infection of T-cells with HIV. That the cytotoxicity was not observed is represented by the symbol "-" in Table 2 below.

[4] = test system: Staphylococcus aureus FDA209P; assay: Antibacterial activity, MIC by serial dilution method; format: cell-based; conditions: 0.5% peptone agar, 37° C., 18 hours
Proteus vulgaris OX19 = assay: as above; format: cell-based; conditions: 0.5% peptone agar, 37° C., 18 hours
[5] = test system: Pseudomonas aeruginosa A3; assay: as above; format: cell-based; conditions: 0.5% peptone agar, 37° C., 18 hours
[6] = test system: mouse leukemia P388 cells; assay: Antitumor activity, growth inhibition of mouse leukemia P388 cells; format: cell-based
Procedure: In this way, such concentration of the tested compound which can inhibit the growth of the P388 cells by 50%, that is, the IC50 -value of the tested compound against the P388 cells was estimated. For comparison purpose, Bellenamine was tested in the same manner as above.

Escherichia coli NIHJ = assay: Antibacterial activity, MIC by serial dilution method; format: cell-based; conditions: 0.5% peptone agar, 37° C., 18 hours
E. coli K-12 = assay: as above; format: cell-based; conditions: Escherichia coli, K12, 0.5% peptone agar, 37° C., 18 hours
S. flexnelli 4b JS1811 = assay: as above; format: cell-based; conditions: 0.5% peptone agar, 37° C., 18 hours
Procedure: The minimum inhibitory concentrations (MIC.) of (R)-3,6-diamino-N-(2-aminoethyl)hexanamide of the formula (Ia) and (R)-3,6-diamino-N-(3-aminopropyl)hexanamide of the formula (Ib) against the growth of various bacteria were determined by a serial dilution method on a 0.5% peptone agar medium (incubated at 37° C. for 18 hours). The results obtained are shown in Table 1 below, in comparison with the MIC. of D-β-lysylmethanediamine (Bellenamine).

P. mirabilis IFM OM-9 = assay: as above; format: cell-based; conditions: Proteus mirabilis, IFMOM9, 0.5% peptone agar, 37° C., 18 hours
HIV (HTLV-IIIB strain) = assay: microbe, parasite or virus in culture; format: cell-based; conditions: Human immunodeficiency virus 1, IIIB, MT4, 96 h, MT-4 cells, 4 days, 90 at 0 μg/ml, read-out: Rate (%) of presence of HIV antigen-positive cells; for activity at 0.1 µg/mL: 0.1 μg/ml; for activity at 1 µg/mL: 1 μg/ml; for activity at 10 µg/mL: 10 μg/ml
mice = assay: Acute toxicity by intravenous injection to mice; format: in vivo; conditions: 250 mg/kg
Solubility = format: physicochemical; conditions: in water

SMILES	MIC [1]	MIC (P. rettgeri GN466)	MIC (B. cereus ATCC10702)	MIC [2]	MIC (Serratia marcescens)	MIC (Micrococcus luteus FDA16)	MIC (B. subtilis NRRL B-558)	MIC [3]	MIC (Bacillus anthracis)	MIC (B. subtilis PC1219)	MIC (S. aureus Smith)	Cytotoxicity (given in brackets) (MT-4 cells; 0.1 μg/ml)	Cytotoxicity (given in brackets) (MT-4 cells; 1 μg/ml)	Cytotoxicity (given in brackets) (MT-4 cells; 10 μg/ml)	MIC [4]	MIC (Proteus vulgaris OX19)	MIC [5]	IC50 [6]	MIC (Escherichia coli NIHJ)	MIC (E. coli K-12)	further results
NCCC[C@@H](N)CC(=O)NCN [Bellenamine, D-β-lysylmethanediamine]	50 µg/mL (≈ 287 µM)	100 µg/mL (≈ 574 µM)	50 µg/mL (≈ 287 µM)	> 200 µg/mL	200 µg/mL (≈ 1150 µM)	> 200 µg/mL	12.5 µg/mL (≈ 71.7 µM)	> 200 µg/mL	100 µg/mL (≈ 574 µM)	12.5 µg/mL (≈ 71.7 µM)	6.25 µg/mL (≈ 35.9 µM)	-	-	-	50 µg/mL (≈ 287 µM)	> 200 µg/mL	200 µg/mL (≈ 1150 µM)	0.36 µg/mL (≈ 2.07 µM)	200 µg/mL (≈ 1150 µM)	> 200 µg/mL	MIC (S. flexnelli 4b JS1811): > 200 µg/mL; MIC (P. mirabilis IFM OM-9): 200 µg/mL (≈ 1150 µM); activity at 0.1 µg/mL (HIV (HTLV-IIIB strain)): 50%; activity at 1 µg/mL (HIV (HTLV-IIIB strain)): 5%; activity at 10 µg/mL (HIV (HTLV-IIIB strain)): 10%
NCCC[C@@H](N)CC(=O)NCCN [Compound (Ia), (R)-3,6-diamino-N-(2-aminoethyl)hexanamide]	25 µg/mL (≈ 133 µM)	50 µg/mL (≈ 266 µM)	50 µg/mL (≈ 266 µM)	200 µg/mL (≈ 1060 µM)	100 µg/mL (≈ 531 µM)	> 200 µg/mL	25 µg/mL (≈ 133 µM)	200 µg/mL (≈ 1060 µM)	100 µg/mL (≈ 531 µM)	25 µg/mL (≈ 133 µM)	6.25 µg/mL (≈ 33.2 µM)	-	-	-	25 µg/mL (≈ 133 µM)	200 µg/mL (≈ 1060 µM)	100 µg/mL (≈ 531 µM)	0.012 µg/mL (≈ 0.0637 µM)	100 µg/mL (≈ 531 µM)	200 µg/mL (≈ 1060 µM)	Acute toxicity (death of mice) (mice): did not cause death of mice; Solubility (Solubility): highly soluble in water; MIC (S. flexnelli 4b JS1811): 100 µg/mL (≈ 531 µM); MIC (P. mirabilis IFM OM-9): 25 µg/mL (≈ 133 µM); activity at 0.1 µg/mL (HIV (HTLV-IIIB strain)): 90%; activity at 1 µg/mL (HIV (HTLV-IIIB strain)): 80%; activity at 10 µg/mL (HIV (HTLV-IIIB strain)): 30%
NCCCNC(=O)C[C@H](N)CCCN [Compound (Ib), (R)-3,6-diamino-N-(3-aminopropyl)hexanamide]	100 µg/mL (≈ 494 µM)	50 µg/mL (≈ 247 µM)	200 µg/mL (≈ 989 µM)	> 200 µg/mL	200 µg/mL (≈ 989 µM)	> 200 µg/mL	100 µg/mL (≈ 494 µM)	200 µg/mL (≈ 989 µM)	200 µg/mL (≈ 989 µM)	100 µg/mL (≈ 494 µM)	50 µg/mL (≈ 247 µM)	-	-	-	200 µg/mL (≈ 989 µM)	200 µg/mL (≈ 989 µM)	200 µg/mL (≈ 989 µM)	0.028 µg/mL (≈ 0.138 µM)	200 µg/mL (≈ 989 µM)	200 µg/mL (≈ 989 µM)	Acute toxicity (death of mice) (mice): did not cause death of mice; Solubility (Solubility): highly soluble in water; MIC (S. flexnelli 4b JS1811): 200 µg/mL (≈ 989 µM); MIC (P. mirabilis IFM OM-9): 50 µg/mL (≈ 247 µM); activity at 0.1 µg/mL (HIV (HTLV-IIIB strain)): 80%; activity at 1 µg/mL (HIV (HTLV-IIIB strain)): 10%; activity at 10 µg/mL (HIV (HTLV-IIIB strain)): 5%
